In US20260297081A1, “COMPOUNDS AND METHODS OF TREATING CANCERS” (Cullgen Inc., priority 2023, published 2026):
pIC50: −log10 of the molar value.

Tests used:
MCF7 cells = experiment: Anti-proliferation (viability) of MCF7 cells (Table 7, FIG. 2B); type: cell-based; details: Homo sapiens, MCF7, MCF7 cells, 3-6 days, 10-point serial dilution; read-out: GI IC50 in MCF-7
CDK4 = CDK4 (Homo sapiens, UniProt P11802+Q16531); experiment: HiBiT detection of HiBiT-tagged CDK4 protein level in MCF7 cells, 16 hours (Table 8); type: cell-based; parameters: expressed in transfected cells; host or cells: MCF7; details: MCF7 cells stably expressing HiBiT tagged target proteins; for activity at 0.01 µM: 10 nM, read-out: % CDK4 Relative Level (10 nM); for activity at 0.1 µM: 100 nM, read-out: % CDK4 Relative Level (100 nM)
Experimental: HiBiT detection system quantitatively measures total amounts of HiBiT-tagged proteins using a luminescent based method. MCF7 cells stably expressing HiBiT tagged target proteins were treated with heterobifunctional compounds at indicated concentrations for 16 hours, then lysed with Nano-Glo HiBiT Lytic detection reagents.

CDK4, sequence (P11802 whole entry): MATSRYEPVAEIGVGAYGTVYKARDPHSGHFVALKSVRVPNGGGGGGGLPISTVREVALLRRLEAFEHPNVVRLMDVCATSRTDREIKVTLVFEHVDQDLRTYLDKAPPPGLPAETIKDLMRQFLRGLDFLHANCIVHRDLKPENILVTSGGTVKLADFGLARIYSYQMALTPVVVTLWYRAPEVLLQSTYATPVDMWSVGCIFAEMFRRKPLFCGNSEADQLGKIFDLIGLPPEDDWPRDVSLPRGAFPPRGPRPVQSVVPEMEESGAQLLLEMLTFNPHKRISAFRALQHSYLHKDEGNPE
CDK4, sequence (P24385 whole entry partner): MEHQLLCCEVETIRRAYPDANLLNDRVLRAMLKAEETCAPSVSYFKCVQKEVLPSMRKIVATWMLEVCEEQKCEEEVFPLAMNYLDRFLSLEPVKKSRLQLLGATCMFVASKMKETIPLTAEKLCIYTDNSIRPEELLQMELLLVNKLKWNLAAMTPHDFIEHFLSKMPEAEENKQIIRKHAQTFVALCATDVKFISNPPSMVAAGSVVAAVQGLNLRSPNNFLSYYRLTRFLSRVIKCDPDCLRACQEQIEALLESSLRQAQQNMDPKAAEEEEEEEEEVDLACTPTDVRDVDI
CDK4, sequence (Q16531 2-1140 limits assumed): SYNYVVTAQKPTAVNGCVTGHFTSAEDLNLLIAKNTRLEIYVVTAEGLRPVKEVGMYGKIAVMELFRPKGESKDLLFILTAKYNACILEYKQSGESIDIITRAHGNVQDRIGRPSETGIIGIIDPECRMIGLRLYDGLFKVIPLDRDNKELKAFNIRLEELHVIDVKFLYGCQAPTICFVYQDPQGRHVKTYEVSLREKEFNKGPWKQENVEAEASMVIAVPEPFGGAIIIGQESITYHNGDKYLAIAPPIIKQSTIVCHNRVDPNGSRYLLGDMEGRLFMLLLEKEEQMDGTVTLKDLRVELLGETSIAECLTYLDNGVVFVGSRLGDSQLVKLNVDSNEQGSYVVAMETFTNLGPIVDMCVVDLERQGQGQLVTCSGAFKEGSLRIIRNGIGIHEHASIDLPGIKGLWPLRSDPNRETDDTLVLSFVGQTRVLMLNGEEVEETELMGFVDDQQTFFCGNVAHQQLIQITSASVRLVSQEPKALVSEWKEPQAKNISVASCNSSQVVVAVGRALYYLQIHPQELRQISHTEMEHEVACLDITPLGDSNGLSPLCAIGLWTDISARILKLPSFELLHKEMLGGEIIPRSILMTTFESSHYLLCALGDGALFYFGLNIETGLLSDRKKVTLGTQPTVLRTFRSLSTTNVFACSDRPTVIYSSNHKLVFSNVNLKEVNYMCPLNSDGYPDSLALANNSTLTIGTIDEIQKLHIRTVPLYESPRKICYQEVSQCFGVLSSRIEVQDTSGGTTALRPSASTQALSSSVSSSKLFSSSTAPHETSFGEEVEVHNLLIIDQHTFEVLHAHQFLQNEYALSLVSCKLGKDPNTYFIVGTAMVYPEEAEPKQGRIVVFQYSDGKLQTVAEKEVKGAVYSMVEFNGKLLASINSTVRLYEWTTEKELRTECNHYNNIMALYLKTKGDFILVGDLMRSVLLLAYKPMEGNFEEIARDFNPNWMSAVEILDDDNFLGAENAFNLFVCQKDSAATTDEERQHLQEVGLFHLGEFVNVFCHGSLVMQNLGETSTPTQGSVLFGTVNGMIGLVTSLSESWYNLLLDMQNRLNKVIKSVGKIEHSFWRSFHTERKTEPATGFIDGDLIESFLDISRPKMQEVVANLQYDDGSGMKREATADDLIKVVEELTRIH

| Compound | pIC50 (MCF7 cells) | activity at 0.01 µM (CDK4) [%] | activity at 0.1 µM (CDK4) [%] |
| --- | --- | --- | --- |
| CC(=O)c1c(C)c2cnc(Nc3ccc(N4CCN(C5CCN(C(=O)C67CC(Nc8nc(NC(C)C)ccc8C(=O)Nc8cc(C)n(C)n8)(C6)C7)C5)CC4)cn3)nc2n(C2CCCC2)c1=O (stereo not drawn) [CPD-587, 2-((3-(3-(4-(6-((6-acetyl-8-cyclopentyl-5-methyl-7-oxo-7,8-dihydropyrido[2,3-d]pyrimidin-2-yl)amino)pyridin-3-yl)piperazin-1-yl)pyrrolidine-1-carbonyl)bicyclo[1.1.1]pentan-1-yl)amino)-N-(1,5-dimethyl-1H-pyrazol-3-yl)-6-(isopropylamino)nicotinamide] | > 7.30 | 55 to 85 | 55 to 85 |
| CNc1ccc(C(=O)Nc2ccc(N(C)C)nn2)c(NCCCCCNC(=O)CN2CCN(c3ccc(Nc4ncc5cc(C(=O)N(C)C)n(C6CCCC6)c5n4)nc3)CC2)n1 [CPD-627, 7-cyclopentyl-2-((5-(4-(2-((5-((3-((6-(dimethylamino)pyridazin-3-yl)carbamoyl)-6-(methylamino)pyridin-2-yl)amino)pentyl)amino)-2-oxoethyl)piperazin-1-yl)pyridin-2-yl)amino)-N,N-dimethyl-7H-pyrrolo[2,3-d]pyrimidine-6-carboxamide] | < 7.00 | 55 to 85 | 55 to 85 |
| CNc1ccc(C(=O)Nc2ccc(N(C)C)nn2)c(NCCCCCCCNC(=O)CN2CCN(c3ccc(Nc4ncc5cc(C(=O)N(C)C)n(C6CCCC6)c5n4)nc3)CC2)n1 [CPD-629, 7-cyclopentyl-2-((5-(4-(2-((7-((3-((6-(dimethylamino)pyridazin-3-yl)carbamoyl)-6-(methylamino)pyridin-2-yl)amino)heptyl)amino)-2-oxoethyl)piperazin-1-yl)pyridin-2-yl)amino)-N,N-dimethyl-7H-pyrrolo[2,3-d]pyrimidine-6-carboxamide] | < 7.00 | 55 to 85 | 55 to 85 |
| CC(=O)c1c(C)c2cnc(Nc3ccc(CN4CCC(CC(=O)NC5CC6(C5)CC(Nc5nc(NC(C)C)ccc5C(=O)Nc5ccc(N(C)C)nn5)C6)C4)cn3)nc2n(C2CCCC2)c1=O (stereo not drawn) [CPD-596, 2-((6-(2-(1-((6-((6-acetyl-8-cyclopentyl-5-methyl-7-oxo-7,8-dihydropyrido[2,3-d]pyrimidin-2-yl)amino)pyridin-3-yl)methyl)pyrrolidin-3-yl)acetamido)spiro[3.3]heptan-2-yl)amino)-N-(6-(dimethylamino)pyridazin-3-yl)-6-(isopropylamino)nicotinamide] | < 7.00 | 55 to 85 | > 85 |
| CNc1ccc(C(=O)Nc2ccc(N(C)C)nn2)c(NCCCCNC(=O)CN2CCN(c3ccc(Nc4ncc5cc6n(c5n4)C4(CCCCC4)CNC6=O)nc3)CC2)n1 [CPD-642, N-(6-(dimethylamino)pyridazin-3-yl)-6-(methylamino)-2-((4-(2-(4-(6-((6′-oxo-7′,8′-dihydro-6′H-spiro[cyclohexane-1,9′-pyrazino[1′,2′:1,5]pyrrolo[2,3-d]pyrimidin]-2′-yl)amino)pyridin-3-yl)piperazin-1-yl)acetamido)butyl)amino)nicotinamide] | < 7.00 | 55 to 85 | 55 to 85 |
| CC(=O)c1c(C)c2cnc(Nc3ccc(CN4CCC(N(C)C(=O)C5CC6(CC(Nc7nc(NC(C)C)ccc7C(=O)Nc7ccc(N(C)C)nn7)C6)C5)CC4)cn3)nc2n(C2CCCC2)c1=O (stereo not drawn) [CPD-595, 2-((6-((1-((6-((6-acetyl-8-cyclopentyl-5-methyl-7-oxo-7,8-dihydropyrido[2,3-d]pyrimidin-2-yl)amino)pyridin-3-yl)methyl)piperidin-4-yl)(methyl)carbamoyl)spiro[3.3]heptan-2-yl)amino)-N-(6-(dimethylamino)pyridazin-3-yl)-6-(isopropylamino)nicotinamide] | > 7.30 | > 85 | 55 to 85 |
